Tested on: SARS-CoV-2
Assay: CPE inhibition of SARS-CoV-2 in VERO-E6 cells
Format: cell-based
Settings: 200 TCID50, 3 days, average of three repeats, FIG. 4

Compound	average CPE inhibition value [µg/mL]
CC(C)C[C@H](NC(=O)OCc1ccccc1)C(=O)N[C@@H](C[C@@H]1CCNC1=O)C(O)S(=O)(=O)[O-].[Na+] (some centres unmarked) [GC376]	3.125
CCC(CC)COC(=O)[C@H](C)N[P@](=O)(OC[C@H]1O[C@@](C#N)(c2ccc3c(N)ncnn23)[C@H](O)[C@@H]1O)Oc1ccccc1 [remdesivir]	8.333
